Measured values reported in publication PMC3887211, “Automethylation Activities within the Mixed Lineage Leukemia-1 (MLL1) Core Complex Reveal Evidence Supporting a “Two-active Site” Model for Multiple Histone H3 Lysine 4 Methylation” (The Journal of Biological Chemistry, 2013).

Legend:
[1] = biological target: T1, MLL1 SET domain (MLL^3745) (Homo sapiens, UniProt Q03164); assay: [3H]methyl transfer to H3 peptide, streptavidin pull-down, liquid scintillation counting; type: biochemical; details: histone H3 peptide (1-20)-GGK-biotin 500 μM fixed; 7 μM MLL1; 0-100 μM labelled compound; assay buffer pH 8.5, 15 °C; construct of MLL1 not stated for this assay; read-out: apparent Km
T1 construct: gene KMT2A; C-terminal Win motif + SET domain, residues 3745-3969, 26 kDa, expressed in E. coli as GST fusion
T1 sequence (Q03164 3745-3969): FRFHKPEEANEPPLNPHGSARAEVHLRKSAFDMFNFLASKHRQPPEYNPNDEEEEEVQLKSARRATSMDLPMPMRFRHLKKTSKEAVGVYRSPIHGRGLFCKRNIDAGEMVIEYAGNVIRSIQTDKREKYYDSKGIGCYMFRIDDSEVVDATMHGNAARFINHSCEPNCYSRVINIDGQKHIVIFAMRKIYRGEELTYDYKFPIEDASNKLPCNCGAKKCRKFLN

MBP-Trithorax SET domain = biological target: T2, MBP-Trithorax SET domain (Drosophila melanogaster, UniProt P20659); assay: [3H]methyl transfer (automethylation and H3 methylation), SDS-PAGE fluorography; type: biochemical; details: labelled compound; with or without histone H3 peptide (1-20); pH 8.5, 15 °C
T2 construct: gene trx; SET domain as MBP fusion from E. coli
T2 sequence (P20659 3588-3726 limits assumed): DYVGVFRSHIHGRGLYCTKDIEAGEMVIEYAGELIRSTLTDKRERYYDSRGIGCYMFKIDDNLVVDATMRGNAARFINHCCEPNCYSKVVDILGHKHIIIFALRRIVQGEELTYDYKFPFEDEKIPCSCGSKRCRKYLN

[2] = biological target: T3, MLL1 core complex (MWRAD) (Homo sapiens, UniProt Q03164); details: labelled compound; no histone H3; pH 8.5, 15 °C; intra-complex methylation of Ash2L by MLL1 SET domain
T3 construct: gene KMT2A
T3 sequence (Q9C005 whole entry, the tested form may be a part): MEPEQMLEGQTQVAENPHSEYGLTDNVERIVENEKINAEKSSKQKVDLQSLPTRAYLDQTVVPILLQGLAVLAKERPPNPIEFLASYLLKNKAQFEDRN
T3 sequence (Q9UBL3 whole entry, further chain, the tested form may be a part): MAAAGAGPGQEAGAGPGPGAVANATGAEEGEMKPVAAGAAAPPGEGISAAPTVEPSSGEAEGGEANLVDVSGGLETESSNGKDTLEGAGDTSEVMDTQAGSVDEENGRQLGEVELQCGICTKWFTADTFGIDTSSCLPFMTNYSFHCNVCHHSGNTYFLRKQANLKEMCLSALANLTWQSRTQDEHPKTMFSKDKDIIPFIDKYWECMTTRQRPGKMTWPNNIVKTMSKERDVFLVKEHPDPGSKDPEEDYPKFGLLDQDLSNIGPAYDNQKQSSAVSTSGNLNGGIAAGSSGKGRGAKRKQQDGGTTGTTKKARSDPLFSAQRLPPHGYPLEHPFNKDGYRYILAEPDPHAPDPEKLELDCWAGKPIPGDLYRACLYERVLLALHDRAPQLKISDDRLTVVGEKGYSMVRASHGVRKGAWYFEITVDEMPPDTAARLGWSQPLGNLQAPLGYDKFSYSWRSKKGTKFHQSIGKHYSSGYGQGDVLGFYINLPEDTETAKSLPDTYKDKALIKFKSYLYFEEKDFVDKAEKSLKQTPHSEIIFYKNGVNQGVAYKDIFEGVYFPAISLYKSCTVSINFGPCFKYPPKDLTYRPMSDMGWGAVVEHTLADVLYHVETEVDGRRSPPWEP
T3 sequence (Q03164 3745-3969): as the sequence (Q03164 3745-3969) above
T3 sequence (Q15291 whole entry, further chain, the tested form may be a part): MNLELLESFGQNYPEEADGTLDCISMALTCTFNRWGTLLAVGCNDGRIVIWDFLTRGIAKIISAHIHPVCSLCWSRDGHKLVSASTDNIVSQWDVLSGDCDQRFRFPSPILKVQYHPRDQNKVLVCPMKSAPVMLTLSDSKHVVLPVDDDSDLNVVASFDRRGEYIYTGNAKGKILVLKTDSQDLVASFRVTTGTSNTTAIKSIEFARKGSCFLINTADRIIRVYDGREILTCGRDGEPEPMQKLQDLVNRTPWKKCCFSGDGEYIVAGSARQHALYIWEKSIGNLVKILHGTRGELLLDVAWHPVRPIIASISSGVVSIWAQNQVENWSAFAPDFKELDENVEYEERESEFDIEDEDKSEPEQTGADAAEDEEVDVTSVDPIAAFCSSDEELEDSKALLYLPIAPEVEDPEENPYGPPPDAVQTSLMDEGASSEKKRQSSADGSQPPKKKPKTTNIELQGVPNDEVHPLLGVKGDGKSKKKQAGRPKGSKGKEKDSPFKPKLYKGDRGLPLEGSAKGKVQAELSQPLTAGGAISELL

WRAD = biological target: T4, WRAD (Homo sapiens, UniProt Q15291+Q9UBL3); details: labelled compound, no MLL1
T4 construct: gene ASH2L
T4 sequence (Q9C005 whole entry): as the sequence (Q9C005 whole entry, the tested form may be a part) above
T4 sequence (Q15291 whole entry): as the sequence (Q15291 whole entry, further chain, the tested form may be a part) above
T4 sequence (Q9UBL3 whole entry): as the sequence (Q9UBL3 whole entry, further chain, the tested form may be a part) above

**Q.** For C[S+](CC[C@H](N)C(=O)O)C[C@H]1O[C@@H](n2cnc3c(N)ncnc32)[C@H](O)[C@@H]1O (stereo partly shown) [AdoMet], which Km [1] is on record?
**A.** The Km was 10.4 ± 3.1 µM.

**Q.** What about the “[3H]methyl transfer (automethylation and H3 methylation), SDS-PAGE fluorography” value (MBP-Trithorax SET domain) of the same compound?
**A.** The value was “MBP-Trithorax SET domain is enzymatically active and undergoes automethylation in the absence of histone H3”.

**Q.** And the “[3H]methyl transfer to Ash2L, SDS-PAGE fluorography” value [2]?
**A.** Its value is “Ash2L methylation is dependent on the catalytic activity of the MLL1 SET domain”.

**Q.** What about the “[3H]methyl transfer to histone H3 peptide, SDS-PAGE fluorography” value (WRAD) of the same compound?
**A.** Its value is “despite significant histone H3 methylation by WRAD, no Ash2L methylation was observed”.
